From patent US7326420B2, “Benzoyl peroxide compositions having increased potency” (priority 2001, dated 2008)
Values belong to the molecule of their own block, whether it stands above or below them.

Legend:
[1] = test system: Candida albicans isolates; test: Checkerboard microdilution susceptibility test (MIC alone and in combination, FICI); type: cell-based
Protocol: (§1) The object of this preliminary study was to discover the in vitro effect of the addition of benzoyl peroxide to terbinafine when tested against Candida albicans, Pseudomonas aeruginosa, and Staphylococcus aureus isolates, using a checkerboard microdilution method. […]
(§2) In this study, ten serial dilutions of terbinafine (starting at 32 μg/ml) and benzoyl peroxide (starting at 3%) were tested alone and in combination against ten Candida albicans isolates from the culture collection at the Center for Medical Mycology. Both susceptible and fluconazole-resistant strains were included. Two strains each of Pseudomonas aeruginosa and Staphylococcus aureus were also tested.
(§3) The individual minimum inhibitory concentrations (MICs) of terbinafine and BP against each isolate were determined according to the NCCLS M27-A2 and M07-A6 standards for yeasts and aerobic bacteria, respectively.
(§4) The effect of combining benzoyl peroxide with terbinafine was evaluated using a checkerboard assay. This test method is a modification of the microdilution antifungal susceptibility test (NCCLS M27A2) wherein two antifungal agents are combined in varying concentrations to determine whether they have a synergistic, additive, or antagonistic effect on the respective minimum inhibitory concentration (MIC) values.
(§5) Two antifungal agents were serially diluted in RPMI to produce ten concentrations of the drugs under investigation. The range was chosen to include achievable serum levels of the drugs. The two drugs were then combined into wells of a microtiter plate so that the concentration of one drug increases as that of the other decreased. Two rows consisting of serial dilutions of each individual drug were also included. Comparison of the MICs of the individual antifungal agents to the MIC of the combined agents was indicative of their relative efficacy.
(§6) [formula] The combination of two drugs was reported as synergistic (<0.5), additive (0.5<FICI <1.0), indifferent (1.0<FICI <4.0), or antagonistic (.4.0).

[2] = test system: Pseudomonas aeruginosa isolates; test: as above; type: cell-based
Protocol: as §1, §2, §3, §4, §5, §6

[3] = test system: Staphylococcus aureus isolates; test: as above; type: cell-based
Protocol: as §1, §2, §3, §4, §5, §6

[4] = Polymerization of tetraethylene glycol dimethacrylate (gel formation) as a test of BP radical activity; type: physicochemical; settings: agent in combination with BP, 3% w/w in tetraethylene glycol dimethacrylate, oven 90 to 100 degrees Celsius
Excerpt: Methods: Polymerization of tetra ethylene glycol dimethacrylate was used as a test of BP radical activity. Solutions of BP, antibiotics, and BP and antibiotics were made at 3% w/w in tetraethylene glycol dimethacrylate. All of the antibiotics except erythromycin (ERY) were obtained from prescription pills, which were crushed in a crucible. The portion of the pills that disolved in tetraethylene glycol dimethacrylate were used in the experiment. ERY was obtained in powdered form from Benzamycin® acne treatments. Aliquots of ten drops of these solutions were placed in an eight well plastic plate. The samples were heated in an oven that maintained a temperature range between 90 to 100 degrees Celsius. After various amounts of time the samples were taken out of the oven and tested for gel formation. Polymerization of tetraethylene glycol dimethacrylate was detected visually by swirling a spatula in the solutions. Gelling constituted an indicator of BP radical activity.

[5] = C. albicans (n = 10), individual compound
[6] = Ps. aeruginosa (n = 2), individual compound
[7] = S. aureus (n = 2), individual compound

number of isolates with MIC of Benzoyl Peroxide 0.38% [1, 5]: 6 | number of isolates with MIC of Benzoyl Peroxide 3.0% [1, 5]: 4 | number of isolates with MIC of Benzoyl Peroxide 0.09% [2, 6]: 2 | number of isolates with MIC of Benzoyl Peroxide 1.5% [3, 7]: 2
Compound: O=C(OOC(=O)c1ccccc1)c1ccccc1 [Benzoyl Peroxide, Benzoyl peroxide]

effect of the agent on BP radical activity (speed of polymerization of tetraethylene glycol dimethacrylate) [4]: did not augment BP radical activity
Compound: N[C@@H]1[C@H]2CN(c3nc4c(cc3F)c(=O)c(C(=O)O)cn4-c3ccc(F)cc3F)C[C@@H]12 [trovofloxacin]

effect of the agent on BP radical activity (speed of polymerization of tetraethylene glycol dimethacrylate) [4]: polymerize the fastest
Compound: CC[C@H]1OC(=O)[C@H](C)[C@@H](O[C@H]2C[C@@](C)(OC)[C@@H](O)[C@H](C)O2)[C@H](C)[C@@H](O[C@@H]2O[C@H](C)C[C@H](N(C)C)[C@H]2O)[C@](C)(O)C[C@@H](C)C(=O)[C@H](C)[C@@H](O)[C@]1(C)O [ERY, erythromycin]

number of isolates with MIC of Terbinafine 8 μg/ml [1, 5]: 1 | number of isolates with MIC of Terbinafine >32 μg/ml [1, 5]: 9 | MIC ([1]; Candida albicans, read-out: MIC of terbinafine alone): > 32 µg/mL | number of isolates with MIC of Terbinafine >32 μg/ml [2, 6]: 2 | MIC ([2]; Pseudomonas aeruginosa, read-out: MIC of terbinafine alone): > 32 µg/mL | number of isolates with MIC of Terbinafine >32 μg/ml [3, 7]: 2 | MIC ([3]; Staphylococcus aureus, read-out: MIC of terbinafine alone): > 32 µg/mL
Compound: CN(C/C=C/C#CC(C)(C)C)Cc1cccc2ccccc12 [Terbinafine, terbinafine]
